# Legend:
# Type in all cases: physicochemical
# [1] = Solubility in water, classification of the European Pharmacopoeia
# Method: In certain embodiments, the diamide has a solubility in water of at least about 0.02% (w/v), of at least about 0.05% (w/v), of at least about 0.1% (w/v), of at least about 0.5% (w/v) or of at least about 1% (w/v) at 20° C., e.g. as determined by the column elution method according to the OECD Guidelines, Test No. 105. Preferably, the diamide is considered as soluble, well soluble or freely soluble according to the classifications of the European Pharmacopoeia, which is herein incorporated by reference.
# [2] = test system: recombinant IgG antibody, either rituximab or omalizumab; test: Particles and turbidity (visual inspection) after freezing/thawing and stirring stress of rituximab or omalizumab; details: 10 mg/ml rituximab or omalizumab, 20 mM histidine pH 6.0, 75 mM excipient; compared with trehalose, sucrose, or trehalose or sucrose with methionine
# Method: Production of Test Solutions: The buffer solution consisted of 20 mM histidine buffer pH 6.0. Protein stock solutions were liberated from other excipients by dialysis over 24 h in buffer solution 100-200 times of their volumes. The buffer solution was renewed after 6 hours and after 20 hours. Stock solutions of test excipients were produced by dissolving 500 mM of the excipient in 90% of the required amount of buffer solution. After that, the pH was adjusted and the remaining volume of buffer solution was added. Then, the solution was filtered with a 0.22 μm filter. The corresponding amount of protein stock solution was added. Sufficient homogenization was provided.
# (§1) Freeze/Thaw-Cycle: The protein-containing solutions were filled into cleaned 6R vials and crimped. The samples were frozen from 20° C. to −70° C. in 5 cycles in a freezer and then thawed at room temperature until the entire sample had reached the liquid state, before the cycle was started again.
# Stirring Stress: The protein-containing solutions were filled into cleaned 6R vials and crimped. Afterwards, the samples were stirred for 2 h at 200 rpm with a magnetic stirrer (Variomag Poly 15, Thermofisher, 5 mm polytetrafluoroethylene—coated stirring bars).
# Visual inspection: 3 Vials of each formulation were visually inspected according to the method described in the European Pharmacopoeia. […]
# recombinant anakinra = recombinant anakinra (Homo sapiens, UniProt P18510); test: Particles and turbidity after freezing/thawing and stirring stress of anakinra; details: 50 mg/ml anakinra, 20 mM citrate pH 6.5, 50 mM excipient, freezing/thawing and 3 h stirring stress
# Chain of recombinant anakinra (P18510 with tags, fused parts or gaps): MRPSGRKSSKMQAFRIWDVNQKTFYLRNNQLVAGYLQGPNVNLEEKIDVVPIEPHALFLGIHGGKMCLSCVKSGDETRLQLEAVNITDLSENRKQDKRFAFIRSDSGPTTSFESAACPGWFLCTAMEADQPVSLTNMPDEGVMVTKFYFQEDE
# Method: (§2) The production of test solutions, the freeze/thaw-cycle, the measurement of stirring stress and the visual inspection were performed substantially as described in Example 4.
# The buffer solution consisted of 20 mM citrate buffer pH 6.5. The samples were stirred for 3 h.
# N,N,N′,N′-tetrakis-(2-hydroxyethyl) adipinic acid amide (Ark Pharm Inc.), D(+) or trehalose (Sigma-Aldrich), or polysorbate 80, was added as a test excipient to an aqueous solution containing recombinant anakinra. […] In the case of polysorbate 80 its concentration was 0.05%. The resulting solutions were subjected to freezing/thawing stress and stirring stress.
# interferon-alpha-2a = interferon-alpha-2a (Homo sapiens, UniProt P01563, R46K); test: Particle formation after freezing/thawing stress of interferon-alpha-2a; details: 50 mM phosphate buffer, pH 7.0; 1 mg/ml interferon-alpha-2a; 50 mM excipient; FIG. 3
# Chain of interferon-alpha-2a (P01563 24-188 R46K): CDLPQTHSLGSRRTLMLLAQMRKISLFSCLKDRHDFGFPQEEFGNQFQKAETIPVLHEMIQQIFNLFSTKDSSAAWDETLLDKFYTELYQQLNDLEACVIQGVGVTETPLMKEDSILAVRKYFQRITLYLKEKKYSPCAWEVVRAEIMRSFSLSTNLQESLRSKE
# Method: (§3) Production of Test Solutions: The buffer solution consisted of 50 mM sodium phosphate at pH 7.0. Protein stock solutions were liberated from other excipients by IEX chromatography to remove potential impurities and surfactants and by dialysis over 24 h in buffer solution 100-200 times of their volumes. The buffer solution was renewed after 3 hours and after 14 hours. Stock solutions of test excipients were produced by dissolving 500 mM of the excipient in 90% of the required amount of buffer solution. After that, the pH was adjusted and the remaining volume of buffer solution was added. Then, the solution was filtered with a 0.22 μm filter. The corresponding amount of protein stock solution was added. Sufficient homogenization was provided.
# as §1, with “2R” for “6R”, “−50°” for “−70°”, “3” for “5”, “cycles at a rate of 2K/min” for “cycles”, “Christ 2D-6 freeze dryer” for “freezer”
# (§4) Flow Imaging Microscopy: 165 μl of the sample solution were measured at 10× magnification using a flow imaging microscope (FlowCam, Fluid Imaging Technologies, Inc., Scarborough, Me., USA).
# The resulting solutions were subjected to freeze/thawing stress.
# recombinant G-CSF = molecular target: T1, recombinant G-CSF (Homo sapiens, UniProt P09919); test: Particles and turbidity after freezing/thawing and stirring stress of G-CSF; details: 1 mg/ml G-CSF, 10 mM acetate pH 4.5, 50 mM excipient; compared with trehalose, sucrose, or trehalose or sucrose with methionine
# T1 sequence (P09919 31-207): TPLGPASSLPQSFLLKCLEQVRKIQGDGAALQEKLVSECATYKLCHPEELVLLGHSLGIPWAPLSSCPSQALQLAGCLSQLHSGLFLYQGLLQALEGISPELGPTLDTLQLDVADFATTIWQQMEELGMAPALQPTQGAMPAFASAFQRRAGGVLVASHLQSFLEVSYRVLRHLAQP
# Method: as §2
# The buffer solution consisted of 10 mM acetate buffer pH 4.5 and was renewed after 4 hours and after 16 hours. For the freeze/thaw cycle and the measurements of stirring stress, 2R vials were used.
# N,N,N′,N′-tetrakis-(2-hydroxyethyl) adipinic acid amide (Ark Pharm Inc.), D(+) trehalose (Sigma-Aldrich), sucrose, and mixtures of trehalose or sucrose with methionine (Sigma-Aldrich) respectively, was added as a test excipient to an aqueous solution containing recombinant G-CSF. […] In the case of sucrose or trehalose mixtures with methionine, the concentration of the sugar was 50 mM, and the concentration of methionine was 20 mM. The resulting solutions were subjected to freezing/thawing stress and stirring stress.
# IgG antibody trastuzumab [3] = test: Particle formation after freezing/thawing stress of trastuzumab (flow imaging microscopy); details: 50 mM phosphate buffer, pH 7.0; 5 mg/ml trastuzumab; 50 mM excipient; FIG. 1
# Method: as §3
# as §1, with “2R” for “6R”, “−50°” for “−70°”, “3” for “5”, “cycles at a rate of 2K/min” for “cycles”, “Christ 2D-6 freeze dryer” for “freezer”
# as §4
# (§5) The resulting solutions were subjected to freezing/thawing stress and stirring stress.
# IgG antibody trastuzumab [4] = test: Particle formation after stirring stress of trastuzumab (flow imaging microscopy); details: 50 mM phosphate buffer, pH 7.0; 5 mg/ml trastuzumab; 50 mM excipient; 2 h at 200 rpm; FIG. 2
# Method: as §3
# Stirring Stress: The protein-containing solutions were filled into cleaned 2R vials and crimped. Afterwards, the samples were stirred for 2 h at 200 rpm with a magnetic stirrer (Variomag Poly 15, Thermofisher, 3 mm polytetrafluoroethylene—coated stirring bars).
# as §4, §5
Compound,Solubility according to the classification of the European Pharmacopoeia [1],Particles in stressed formulations [2],Turbidity of stressed formulations [2],"Particles in stressed formulations, compared with trehalose (recombinant anakinra)","Turbidity of stressed formulations, compared with trehalose (recombinant anakinra)","Particles in stressed formulations, compared with polysorbate 80 (recombinant anakinra; polysorbate 80 at 0.05%)","Turbidity of stressed formulations, compared with polysorbate 80 (recombinant anakinra; polysorbate 80 at 0.05%)",Amount of particles after 3 freezing/thawing cycles (interferon-alpha-2a),Particles in stressed formulations (recombinant G-CSF),Turbidity of stressed formulations (recombinant G-CSF),Amount of particles after 3 freezing/thawing cycles (IgG antibody trastuzumab [3]),Amount of particles after stirring stress (IgG antibody trastuzumab [4])
"O=C(CCCCC(=O)N(CCO)CCO)N(CCO)CCO [compound A, N,N,N′,N′-tetrakis-(2-hydroxyethyl) adipinic acid amide]",well soluble,less particles,less turbid,less particles,less turbid,about equally low amounts of particles,about equally low in turbidity,less particles than formulations without any excipient and formulations with arginine or polysorbate 20,less particles,less turbid,"less particles than formulations comprising standard excipients like, glycerol, NaCl, or D(+) trehalose or formulations without any excipients","less particles than formulations comprising standard excipients like, glycerol, NaCl, or D(+) trehalose or formulations without any excipients"
Polysorbate 20 [reference compound],,,,,,,,,,,even less particles,
